Measured values published in patent US20070128217A1 (priority 2003, published 2007).

How the values were obtained:
[1] = tested on: antibodies in sera from SARS patients (sera 1a, 1b, 2, 6, 37, 62, London, SARS-yellow, SARS-green); type: binding, human; set-up: Binding of serum 6 to linear peptides of protein X1 of SARS-CoV Urbani / Binding of serum 37 to linear peptides of protein X1 of SARS-CoV Urbani / Binding of serum 6 to looped/cyclic peptide (PEPSCAN-ELISA) / Binding of serum 37 to looped/cyclic peptide (PEPSCAN-ELISA) / Binding of serum 37 to looped/cyclic peptides of protein X1 of SARS-CoV Urbani / Binding of serum 6 to linear peptides of protein X2 / Binding of serum 37 to linear peptides of protein X2 / Binding of serum 37 to looped/cyclic peptides of protein X2 of SARS-CoV Urbani / Binding of serum 6 to linear peptides of protein M of SARS-CoV Urbani / Binding of serum 37 to linear peptides of protein M of SARS-CoV Urbani / Binding of serum 6 to looped/cyclic peptides of protein M of SARS-CoV Urbani / Binding of serum 37 to looped/cyclic peptides of protein M of SARS-CoV Urbani / Binding of serum 6 to linear peptides of protein X3 of SARS-CoV Urbani / Binding of serum 37 to linear peptides of protein X3 of SARS-CoV Urbani / Binding of serum 37 to looped/cyclic peptides of protein X3 of SARS-CoV Urbani / Binding of serum 6 to linear peptides of protein X4 of SARS-CoV Urbani / Binding of serum 37 to linear peptides of protein X4 of SARS-CoV Urbani / Binding of serum 37 to looped/cyclic peptides of protein X4 of SARS-CoV Urbani / Binding of serum 6 to linear peptides of protein X5 of SARS-CoV Urbani / Binding of serum 37 to linear peptides of protein X5 of SARS-CoV Urbani / Binding of serum 37 to looped/cyclic peptides of protein X5 of SARS-CoV Urbani / Binding of serum 6 to linear peptides of protein N of SARS-CoV Urbani / Binding of serum 37 to linear peptides of protein N of SARS-CoV Urbani / Binding of serum 6 to linear peptide (PEPSCAN-ELISA) / Binding of serum 1a to looped/cyclic peptides of protein N of SARS-CoV Urbani / Binding of serum 1b to looped/cyclic peptides of protein N of SARS-CoV Urbani / Binding of serum 2 to looped/cyclic peptides of protein N of SARS-CoV Urbani / Binding of serum 6 to looped/cyclic peptides of protein N of SARS-CoV Urbani / Binding of serum 37 to looped/cyclic peptides of protein N of SARS-CoV Urbani / Binding of serum 62 to looped/cyclic peptides of protein N of SARS-CoV Urbani / Binding of serum London to looped/cyclic peptides of protein N of SARS-CoV Urbani / Binding of serum SARS-green to looped/cyclic peptides of protein N of SARS-CoV Urbani: unit not given here
[2] = tested on: control sera (pooled serum of ten healthy LUMC hospital workers; commercial negative donor pooled serum from the Dutch bloodbank); type: binding, human; set-up: Binding of Control serum LUMC to linear peptides / Binding of Control serum Blood-bank to linear peptides / Binding of Control serum LUMC to looped peptides / Binding of Control Serum Blood-Bank to Looped peptides / Binding of Control serum LUMC to linear peptides of the protein M of SARS-CoV Urbani / Binding of Control serum Blood-bank to linear peptides of the protein M of SARS-CoV Urbani / Binding of Control serum LUMC to looped peptides of the protein M of SARS-CoV Urbani / Binding of Control Serum Blood-Bank to Looped peptides of the protein M of SARS-CoV Urbani: unit not given here
[3] = tested on: rabbit serum obtained by immunizing a rabbit with the SARS-CoV strain Frankfurt 1; type: binding; set-up: Binding of a rabbit serum to linear peptides / Binding of a rabbit serum to looped peptides / Rabbit serum linear peptides / Rabbit serum looped peptides / Binding of a rabbit serum to linear peptides of protein N of SARS-CoV Urbani (Rabbit serum linear peptides) / Binding of a rabbit serum to looped/cyclic peptides of protein N of SARS-CoV Urbani (Rabbit serum looped peptides): unit not given here
[4] = tested on: recombinant human anti-SARS-CoV antibody 03-018; type: binding; set-up: Binding of antibody 03-018 to linear peptides of the N protein of SARS-CoV Urbani / Binding of antibody 03-018 to looped/cyclic peptides of the N protein of SARS-CoV Urbani: unit not given here

Sequence | Binding of serum 1a to linear peptides of protein N of SARS-CoV Urbani [1] | Binding of serum 1a to looped/cyclic peptides of protein N of SARS-CoV Urbani [1] | Binding of serum 1b to linear peptides of protein N of SARS-CoV Urbani [1] | Binding of serum 1b to looped/cyclic peptides of protein N of SARS-CoV Urbani [1] | Binding of serum 2 to linear peptides of protein N of SARS-CoV Urbani [1] | Binding of serum 2 to looped/cyclic peptides of protein N of SARS-CoV Urbani [1] | Binding of serum 6 to linear peptides of protein N of SARS-CoV Urbani [1] | Binding of serum 6 to looped/cyclic peptides of protein N of SARS-CoV Urbani [1] | Binding of serum 37 to linear peptides of protein N of SARS-CoV Urbani [1] | Binding of serum 37 to looped/cyclic peptides of protein N of SARS-CoV Urbani [1] | Binding of serum 62 to linear peptides of protein N of SARS-CoV Urbani [1] | Binding of serum 62 to looped/cyclic peptides of protein N of SARS-CoV Urbani [1] | Binding of serum London to linear peptides of protein N of SARS-CoV Urbani [1] | Binding of serum London to looped/cyclic peptides of protein N of SARS-CoV Urbani [1] | Binding of serum SARS-green to looped/cyclic peptides of protein N of SARS-CoV Urbani [1] | Binding of serum SARS-yellow to looped/cyclic peptides of protein N of SARS-CoV Urbani [1] | Binding of a rabbit serum to linear peptides of protein N of SARS-CoV Urbani (Rabbit serum linear peptides) [3] | Binding of a rabbit serum to looped/cyclic peptides of protein N of SARS-CoV Urbani (Rabbit serum looped peptides) [3] | Binding of antibody 03-018 to linear peptides of the N protein of SARS-CoV Urbani [4] | Binding of antibody 03-018 to looped/cyclic peptides of the N protein of SARS-CoV Urbani [4] | further results
ADMDDFSRQLQNSMS | 0.3 | 0.3 | 0.2 | 0.2 | 0.2 | 0.2 | 1.5 | 0.0 | 0.7 | 0.4 | 0.6 | 0.3 | 0.8 | 0.2 | 0.1 | 0.2 | 0.2 | 0.4 | 0.1 | 0.1 | Binding of serum SARS-green to linear peptides of protein N of SARS-CoV Urbani [1]: 0.3; Binding of serum SARS-yellow to linear peptides of protein N of SARS-CoV Urbani [1]: 0.7; Control Serum Blood-Bank Looped peptides [2]: 0.4; Control serum Blood-bank linear peptides [2]: 0.8; Control serum LUMC linear peptides [2]: 0.7; Control serum LUMC looped peptides [2]: 0.2
AFGRRGPEQTQGNFG | – | 0.3 | – | 0.1 | – | 0.3 | – | 0.1 | – | 0.3 | – | 0.3 | – | 0.3 | 0.1 | 0.1 | 0.1 | 0.0 | 0.1 | 0.2 | Binding of serum 1a to linear peptide (PEPSCAN-ELISA) [1]: 0.2; Binding of serum 1b to linear peptide (PEPSCAN-ELISA) [1]: 0.1; Binding of serum 2 to linear peptide (PEPSCAN-ELISA) [1]: 0.2; Binding of serum 6 to linear peptide (PEPSCAN-ELISA) [1]: 0.3; Binding of serum 37 to linear peptide (PEPSCAN-ELISA) [1]: 0.5; Binding of serum 62 to linear peptide (PEPSCAN-ELISA) [1]: 0.7; Binding of serum London to linear peptide (PEPSCAN-ELISA) [1]: 0.8; Binding of serum SARS-green to linear peptide (PEPSCAN-ELISA) [1]: 0.4; Binding of serum SARS-yellow to linear peptide (PEPSCAN-ELISA) [1]: 0.6; Binding of Control Serum Blood-Bank to Looped peptides [2]: 0.4; Binding of Control serum Blood-bank to linear peptides [2]: 0.6; Binding of Control serum LUMC to linear peptides [2]: 0.5; Binding of Control serum LUMC to looped peptides [2]: 0.3
AIKLDDKDPQFKDNV | 0.2 | 0.3 | 0.1 | 0.2 | 0.2 | 0.3 | 0.2 | 0.2 | 0.8 | 0.5 | 0.9 | 0.4 | 0.6 | 0.4 | 0.4 | 0.2 | 0.1 | 0.3 | 0.1 | 0.2 | Binding of serum SARS-green to linear peptides of protein N of SARS-CoV Urbani [1]: 0.7; Binding of serum SARS-yellow to linear peptides of protein N of SARS-CoV Urbani [1]: 0.6; Control Serum Blood-Bank Looped peptides [2]: 0.5; Control serum Blood-bank linear peptides [2]: 0.7; Control serum LUMC linear peptides [2]: 0.8; Control serum LUMC looped peptides [2]: 0.5
